Values quoted from earlier work, collected in paper PMC9528030 (ACS chemical biology, 2022).

System: SARS-CoV-2
Conditions: read-out: EC50 in a CPE assay; cited from earlier work

With `C[C@@H](OC(C)(C)C)[C@H](NC(=O)OCc1ccccc1)C(=O)N[C@@H](CC1CCCCC1)C(=O)N[C@H](C=O)C[C@@H]1CCNC1=O` [MPI8] as the compound, how does the EC50 read?
The EC50 was 30 nM.
